Data as given in PMC6689897, “Drugging an undruggable pocket on KRAS” (Proceedings of the National Academy of Sciences of the …, 2019).

Target: SOScat-catalyzed nucleotide exchange on RAS (Homo sapiens, UniProt P01116)
Assay: SOS1 nucleotide exchange assay (BODIPY-GDP)

Chain of SOScat-catalyzed nucleotide exchange on RAS (P01116 1-169 isoform P01116-2 limits assumed): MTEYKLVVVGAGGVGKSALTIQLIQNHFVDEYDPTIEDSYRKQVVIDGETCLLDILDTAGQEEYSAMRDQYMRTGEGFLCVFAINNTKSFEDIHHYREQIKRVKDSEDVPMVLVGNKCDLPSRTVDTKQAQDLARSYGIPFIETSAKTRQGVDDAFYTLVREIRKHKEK

## Cn1cnc(Cn2ccc3ccc(CNCc4[nH]c5ccccc5c4[C@H]4NC(=O)c5ccc(O)cc54)cc32)c1 [Compound 1]
Highest concentrations
  SOScat-mediated exchange: full inhibition
Several concentrations
  SOS1-catalyzed nucleotide exchange: inhibits the rate of nucleotide exchange in a dose-dependent manner
